Test results as given in patent US12331032B2, “Quinone reductase 2 inhibitor compounds and uses thereof” (DUKE UNIVERSITY, priority 2018, dated 2025).

Legend:
[1] = molecular target: T1, quinone reductase 2 (QR2) (Homo sapiens, UniProt P16083); assay: QR2 inhibition, comparative IC50 data; assay type: biochemical; details: QR2 inhibitors
T1 sequence (P16083 1-231): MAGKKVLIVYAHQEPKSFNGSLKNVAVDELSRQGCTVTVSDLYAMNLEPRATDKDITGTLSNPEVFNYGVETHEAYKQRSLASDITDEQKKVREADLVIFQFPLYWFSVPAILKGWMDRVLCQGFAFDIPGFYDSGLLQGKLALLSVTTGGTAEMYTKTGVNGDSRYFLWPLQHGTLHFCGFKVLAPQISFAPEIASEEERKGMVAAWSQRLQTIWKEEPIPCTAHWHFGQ

[2] = system: mouse model of closed head injury (TBI); assay: Rotorod vestibulomotor function after closed head injury (TBI); assay type: in vivo; details: mice, i.p. at 4 hours following TBI, after 5 days
Protocol: The TBI model involves a single impact designed to avoid skull fracture. Injury is produced predominantly through acceleration/deceleration forces. For this model, therapeutic compounds were delivered i.p. at 4 hours following TBI, and then once weekly thereafter for the duration of the experiment, which terminated after 28 days following assessment of spatial learning and memory. […] Mice were tested on Rotorod for 5 consecutive days post TBI, then on day 7 and day 28.

[3] = system: mouse model of closed head injury (TBI); assay: Morris Water maze spatial learning and memory after TBI; assay type: in vivo; details: days 28-31 post-injury
Protocol: The TBI model involves a single impact designed to avoid skull fracture. Injury is produced predominantly through acceleration/deceleration forces. For this model, therapeutic compounds were delivered i.p. at 4 hours following TBI, and then once weekly thereafter for the duration of the experiment, which terminated after 28 days following assessment of spatial learning and memory. FIG. 5A-B summarize the results of spatial learning and memory assessments at 4 weeks following TBI, using the Morris Water maze to test the ability of mice to locate a submerged platform. The mice performed four trials/day for 4 consecutive days (inter-trial interval=30 min). The latency to locate the platform was recorded, and the 4 trials per day were averaged. Mice were tested on days 28-31 post-injury (n=11-12 mice per group). Standard control trials to confirm intact vision were also performed.

[4] = system: permanent MCA occlusion model; details: cited from earlier work
[5] = acidic lysomal pHs between 4 and 5.5; cited from earlier work

SMILES | IC50 [1] [µM] | improvement in Rotorod latency over CQ [2] [%] | improvement in Rotorod latency over vehicle [2] [%] | improvement in learning and memory over vehicle (Morris Water maze) [3] | reduction of stroke volumes [4] [%] | fraction doubly protonated [5] [%]
COc1ccc2c(NCc3cccnc3)ccnc2c1 [QR2I-44, 7-methoxy-4-(pyridin-3-yl) methylaminoquinoline] | 7.51 | ~200 | ~300 | 30-35% |  | 
CCN(CC)CCCC(C)Nc1ccnc2cc(Cl)ccc12 (stereo not shown) [chloroquine] | 70.9 |  |  |  | 60 | ~100
